From PubChem BioAssay (NCI) come the findings set out here.

Structures are written as SMILES. “And” between values parts separate entries of the source, which are not always exact repeats. Identical values can stand only once.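 How tested: cells in 96-well plates exposed to compound for 48 hours at five concentrations. GI50 marks 50% less growth. At the TGI there is no net growth.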

Some test systems named below: HOP-92 NSCLC; MOLT-4 leukemia; M14 melanoma; HOP-62 NSCLC; SK-MEL-5 melanoma; SK-OV-3 ovarian; OVCAR-4 ovarian; ACHN renal; HCC-2998 colon; SK-MEL-28 melanoma.
Experiment in all cases: NCI tumour cell line growth inhibition, 48 h

In the case of `COc1ccc(C2=NOP(c3ccccc3)(c3ccccc3)(c3ccccc3)C2)cc1`, the TGI with HOP-92 NSCLC is 53.2 µM; in the test on MOLT-4 leukemia it was 41.2 µM; with M14 melanoma it was 41.9 µM; in the test on HOP-62 NSCLC, above 100 µM; in the test on SK-MEL-5 melanoma, 28.8 µM; in the test on SK-OV-3 ovarian, above 100 µM. For the same compound, the TGI was above 100 µM in the test on OVCAR-4 ovarian, above 100 µM in the test on ACHN renal, above 76.5 µM with HCC-2998 colon and above 100 µM in the test on SK-MEL-28 melanoma.
As for `OC(COc1cccc2ccccc12)CN1CCN(c2ccccc2Cl)CC1` (stereo not given), the GI50 in the test with HOP-92 NSCLC is 2.47 µM; with MOLT-4 leukemia, 12.6 µM; with M14 melanoma it was 14.3 µM; in the test on HOP-62 NSCLC, 13.7 µM; in the test on SK-MEL-5 melanoma, 15.2 µM; in the test on SK-OV-3 ovarian, 16.8 µM. Further, the GI50 in the test with OVCAR-4 ovarian was 12.6 µM; in the test with ACHN renal, 13.9 µM; in the test with HCC-2998 colon, 14.8 µM; with SK-MEL-28 melanoma, 14.5 µM. Moreover, the TGI with HOP-92 NSCLC came to 16.8 µM; with MOLT-4 leukemia, 59.5 µM; in the test on M14 melanoma, 29.4 µM; with HOP-62 NSCLC it was 27.3 µM; in the test on SK-MEL-5 melanoma it was 28.9 µM; in the test with SK-OV-3 ovarian it was 37.8 µM. In addition, the TGI came to 25.8 µM in the test with OVCAR-4 ovarian, 27.5 µM in the test on ACHN renal, 29.3 µM with HCC-2998 colon and 27.9 µM in the test with SK-MEL-28 melanoma.
With `CCOC(=O)c1ccccc1-c1c2ccc(=[N+](C)C)cc-2oc2cc(N(C)C)ccc12`, the GI50 was 0.619 µM in the test on HOP-92 NSCLC; 0.488 µM in the test with MOLT-4 leukemia; 0.448 µM in the test with M14 melanoma; 0.352 µM in the test with HOP-62 NSCLC; 0.205 µM with SK-MEL-5 melanoma; 0.306 µM with SK-OV-3 ovarian. Also, the GI50 with OVCAR-4 ovarian is 0.167 µM; with ACHN renal, 1.28 µM; in the test with HCC-2998 colon it was 0.35 µM; in the test on SK-MEL-28 melanoma, 0.687 µM. The TGI in the test with HOP-92 NSCLC was 3.96 µM; with MOLT-4 leukemia, 35.7 µM; in the test with M14 melanoma, 10.9 µM; with HOP-62 NSCLC it was 10.3 µM; in the test with SK-MEL-5 melanoma it was 0.632 µM; with SK-OV-3 ovarian, 1.74 µM. The TGI in the test on OVCAR-4 ovarian is above 41.5 µM; in the test on ACHN renal it was 8.1 µM; with HCC-2998 colon it was 13.9 µM; in the test on SK-MEL-28 melanoma, 13 µM.
Turning to `N#Cc1c2c(c(-c3cccs3)n(C3OC(CO)C(O)C(O)C3O)c1=S)CCc1ccccc1-2` (stereo not given), the GI50 in the test with HOP-92 NSCLC is 3.35 µM; in the test on M14 melanoma, above 100 µM; in the test with HOP-62 NSCLC it was 14.9 µM and 38.5 µM; with SK-MEL-5 melanoma it was 6.47 µM and 28.4 µM; with ACHN renal it was 13.8 µM and > 92.2 µM. In addition, the TGI is above 88.8 µM in the test on HOP-92 NSCLC; above 100 µM in the test with MOLT-4 leukemia; above 100 µM with M14 melanoma; above 100 µM in the test with HOP-62 NSCLC; above 100 µM in the test with SK-MEL-5 melanoma; above 100 µM with SK-OV-3 ovarian. Also, the TGI with OVCAR-4 ovarian, in the test on ACHN renal, with HCC-2998 colon and in the test with SK-MEL-28 melanoma was above 100 µM throughout.
As for `CC(=O)N1CCN(CCOc2ccc(C3CCN(C4=Nn5c(nnc5C(F)(F)F)CC4)CC3)cc2)CC1`, the GI50 is 7.64 µM in the test with HOP-92 NSCLC; 27 µM in the test on MOLT-4 leukemia; 11.1 µM in the test with M14 melanoma; 11.5 µM in the test on HOP-62 NSCLC; 6.58 µM with SK-MEL-5 melanoma; 21.1 µM with SK-OV-3 ovarian. The GI50 in the test with OVCAR-4 ovarian was 8.55 µM; in the test with ACHN renal, 10.6 µM; in the test with HCC-2998 colon it was 21.6 µM; in the test on SK-MEL-28 melanoma, 21.4 µM. In addition, the TGI was above 100 µM in the test with HOP-92 NSCLC; above 100 µM with MOLT-4 leukemia; above 100 µM in the test on M14 melanoma; above 100 µM with HOP-62 NSCLC; 30.8 µM in the test on SK-MEL-5 melanoma; above 100 µM in the test on SK-OV-3 ovarian. Besides, the TGI in the test on OVCAR-4 ovarian, in the test on ACHN renal, in the test on HCC-2998 colon and in the test with SK-MEL-28 melanoma was above 100 µM in each case.
For the compound `O=C(CCl)Nc1cc(O)c2c(c1)C(=O)c1cccc(O)c1C2=O`, the GI50 was 1.79 µM in the test with HOP-92 NSCLC; 0.321 µM in the test with MOLT-4 leukemia; 1.25 µM in the test on M14 melanoma; 1.71 µM in the test on HOP-62 NSCLC; 0.549 µM in the test on SK-MEL-5 melanoma; 2.61 µM with SK-OV-3 ovarian. The GI50 is 1.96 µM in the test on OVCAR-4 ovarian, 1.55 µM in the test with ACHN renal, 1.75 µM with HCC-2998 colon and 2.79 µM with SK-MEL-28 melanoma. Moreover, the TGI in the test on HOP-92 NSCLC was 3.63 µM; in the test with MOLT-4 leukemia, 1.76 µM; with M14 melanoma, 3.45 µM; in the test with HOP-62 NSCLC, 3.38 µM; in the test with SK-MEL-5 melanoma, 1.61 µM; with SK-OV-3 ovarian, 18.1 µM. Moreover, the TGI with OVCAR-4 ovarian was determined as 7.23 µM; in the test with ACHN renal, 2.98 µM; with HCC-2998 colon, 3.4 µM; in the test on SK-MEL-28 melanoma it was 8.95 µM.
Turning to `COc1ccc2c(c1)CC[C@@H]1[C@@H]2CC[C@]2(C)C=C(/C=C/C(=O)c3ccccc3)C[C@@H]12`, the GI50 was 15.5 µM in the test with HOP-92 NSCLC; 16.5 µM in the test on MOLT-4 leukemia; 16.6 µM in the test on M14 melanoma; 16.9 µM with HOP-62 NSCLC; 14 µM in the test with SK-MEL-5 melanoma; 20.8 µM with SK-OV-3 ovarian. Moreover, the GI50 in the test on OVCAR-4 ovarian was 16.2 µM; with ACHN renal, 16.4 µM; in the test on HCC-2998 colon, 16.2 µM; in the test with SK-MEL-28 melanoma it was 16.2 µM. Besides, the TGI in the test on HOP-92 NSCLC turned out to be 29.7 µM; with MOLT-4 leukemia it was 54.5 µM; in the test with M14 melanoma, 34.3 µM; in the test on HOP-62 NSCLC, 31.2 µM; with SK-MEL-5 melanoma, 27.2 µM; with SK-OV-3 ovarian it was 38.9 µM. Further, the TGI stood at 31.6 µM in the test with OVCAR-4 ovarian, 31.1 µM with ACHN renal, 31.2 µM in the test with HCC-2998 colon and 31.7 µM in the test on SK-MEL-28 melanoma.
Turning to `CC1=C(C(=O)Nc2ccccc2)C(c2ccc(C(C)C)cc2)C(C(=O)Nc2ccccc2)=C(C)N1`, the TGI in the test on HOP-92 NSCLC stood at 32.5 µM; in the test on MOLT-4 leukemia, 57.5 µM; in the test with M14 melanoma, 55.9 µM; in the test with HOP-62 NSCLC, 85.7 µM; with SK-MEL-5 melanoma it was 27 µM; with SK-OV-3 ovarian it was 82.9 µM. In addition, the TGI in the test with OVCAR-4 ovarian is above 100 µM; in the test on ACHN renal it was above 66.9 µM; in the test with HCC-2998 colon it was 20.9 µM; in the test on SK-MEL-28 melanoma, above 63.7 µM.
